# In patent US20220330549A1, “USE OF N-BENZYLBENZAMIDE-BASED COMPOUND AS HERBICIDE” (Northwest A&F University, priority 2020, published 2022):
# How the values were obtained:
# Format in all cases: in vivo
# Cyperaceae = test: Post-emergence herbicidal activity test in a paddy field; parameters: key: level scale; higher level = more weed left vs blank control; conditions: 150 g a.i./ha (penoxsulam control 250 g(a.i.)/h)
# Outline: (§1)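 Efficacy was visually estimated 15 and 30 days after spraying, grading weed coverage relative to an untreated neighbouring plot (level 2 = 0 to 2.5%, level 9 = 67.6 to 100%). Treatments were 150 g(a.i.)/ha from 10% emulsifiable concentrates applied at the 4-5 leaf rice stage, four repeats of 50 m^2 each.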
# Broadleaf weed = test: as above; parameters: key: level scale; higher level = more weed left vs blank control; conditions: 150 g a.i./ha (penoxsulam control 250 g(a.i.)/h)
# Outline: as §1
# Gramineae = test: as above; parameters: key: level scale; higher level = more weed left vs blank control; conditions: 150 g a.i./ha (penoxsulam control 250 g(a.i.)/h)
# Outline: as §1
# Piemarker [1] = test: Herbicidal activity test for indoor pre-emergence soil treatment; parameters: key: level 1-9; higher = more weed remaining vs blank control; conditions: 150 g a.i./ha, visual inspection 21 days after treatment
# Outline: (§2)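 Pre-emergence test following NY/T 1155.3-2006: weed seeds were sown in moistened neutral sandy loam (≤2% organic matter) and covered with 0.5–2.0 cm of soil. After 24 h, the soil was sprayed with a 10% EC diluted in water at 150 g(a.i.)/ha. Damage was scored visually on a 1–9 scale at 21 days.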
# Barnyard grass [2] = test: as above; parameters: key: level 1-9; higher = more weed remaining vs blank control; conditions: 150 g a.i./ha, visual inspection 21 days after treatment
# Outline: as §2
# green bristlegrass [3] = test: as above; parameters: key: level 1-9; higher = more weed remaining vs blank control; conditions: 150 g a.i./ha, visual inspection 21 days after treatment
# Outline: as §2
# Amaranthus retroflexus [4] = test: as above; parameters: key: 1-9 levels; higher = more weed remaining vs blank control; conditions: 150 g a.i./ha, visual inspection 21 days after treatment
# Outline: as §2
# Digitaria sanguinalis [5] = test: as above; parameters: key: 1-9 levels; higher = more weed remaining vs blank control; conditions: 150 g a.i./ha, visual inspection 21 days after treatment
# Outline: as §2
# Amaranthus retroflexus [6] = test: Herbicidal activity test for indoor post-emergence spraying on stems and leaves; parameters: key: grade level by weed remaining vs blank control, e.g. 5 = 10.1-15%; conditions: 150 g a.i./ha, visual inspection 21 days after treatment
# Outline: (§3)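 Greenhouse-grown weeds, post-emergence foliar spray (NY/T 1155.4-2006 method); visual scoring at 21 d post-treatment as levels vs. untreated blank control (e.g., level 5 = 10.1–15%, level 8 = 35.1–67.5% of control weed).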
# Piemarker [7] = test: as above; parameters: key: grade level by weed remaining vs blank control, e.g. 5 = 10.1-15%; conditions: 150 g a.i./ha, visual inspection 21 days after treatment
# Outline: as §3
# Barnyard grass [8] = test: as above; parameters: key: grade level by weed remaining vs blank control, e.g. 5 = 10.1-15%; conditions: 150 g a.i./ha, visual inspection 21 days after treatment
# Outline: as §3
# green bristlegrass [9] = test: as above; parameters: key: grade level by weed remaining vs blank control, e.g. 5 = 10.1-15%; conditions: 150 g a.i./ha, visual inspection 21 days after treatment
# Outline: as §3
# Digitaria sanguinalis [10] = test: as above; parameters: key: grade level by weed remaining vs blank control, e.g. 5 = 10.1-15%; conditions: 150 g a.i./ha, visual inspection 21 days after treatment
# Outline: as §3
# Humulus scandens [11] = test: as above; parameters: key: grade level by weed remaining vs blank control, e.g. 5 = 10.1-15%; conditions: 150 g a.i./ha, visual inspection 21 days after treatment
# Outline: as §3
# Humulus scandens [12] = test: Herbicidal activity test for indoor pre-emergence soil treatment; conditions: 150 g a.i./ha, visual inspection 21 days after treatment
# Outline: as §2
# Amaranthus retroflexus [13] = test: Field test for weed control in a corn field
# Outline: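 Post-emergence control of Amaranthus retroflexus was assessed in corn plots using the GB/T 17980.42-2000 method. Emulsifiable concentrates (10%) in water were applied by spraying at the 2- to 5-leaf crop stage on 20 m^2 plots, four replicates each, alongside a mesotrione 25% oil dispersion reference. Herbicidal activity was scored on 1-9 levels by weed amount relative to blank control areas.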
# goosegrass = test: Field test for weed control in a corn field
# Outline: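 In this field trial in corn, run per GB/T 17980.42-2000, test agents prepared as 10% emulsifiable concentrates were applied in water as sprays at 150 g(a.i.)/ha at the 2- to 5-leaf corn stage. Each treatment covered 20 m^2 and was repeated 4 times. Goosegrass control was scored 1-9 relative to weed remaining in blank control areas.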
# Barnyard grass [14] = test: Field test for weed control in a corn field
# Outline: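 Herbicidal activity against barnyard grass was assessed in corn field plots of 20 m^2, with four replicates per treatment. Compounds were applied as water-diluted 10% emulsifiable concentrates at 150 g(a.i.)/ha at the 2-5 leaf corn stage, with 25% mesotrione oil dispersion as the reference agent. Damage was scored on a 1-9 scale against untreated blank plots.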
# nutgrass flatsedge = test: Field test for weed control in a corn field
# Outline: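 Herbicidal effect on nutgrass flatsedge was measured in a field planted with corn, using the GB/T 17980.42-2000 method. Emulsifiable concentrates (10%) in water were sprayed at 150 g(a.i.)/ha during the 2-leaf to 5-leaf corn stage, on 20 m^2 plots repeated 4 times. 25% mesotrione oil dispersion was the control agent. Activity was scored from 1 to 9 by weed remaining relative to blank control plots.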
# Acalypha australis = test: Field test for weed control in a corn field
# Outline: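 Herbicidal activity against weeds was assessed in corn plots by the GB/T 17980.42-2000 method. Corn at the 2–5 leaf stage received water sprays of 10% emulsifiable concentrates at 150 g(a.i.)/ha, four repeats per treatment over 20 m^2. A 25% mesotrione oil dispersion was the reference. Damage symptoms and severity were rated on levels 1-9 relative to weeds in the blank control area.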
# Chenopodium album = test: Field test for weed control in a corn field
# Outline: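 Field weed-control testing in corn, run per GB/T 17980.42-2000, scored Chenopodium album on a 1-9 level scale, where each level matches a percentage range of weed remaining relative to the blank control area. Sprays of 10% emulsifiable concentrates in water delivered 150 g(a.i.)/ha at the corn 2-leaf to 5-leaf stage on 20 m^2 plots, four replicates each. Mesotrione 25% oil dispersion served as reference.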
# Convolvulus arvensis = test: Field test for weed control in a corn field
# Outline: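 Post-emergence herbicidal activity on Convolvulus arvensis was scored in a corn field on a 1-9 scale, based on symptoms and damage severity. Each level corresponds to the weed remaining as a percentage of the blank control area. Sprays of 10% emulsifiable concentrate at 150 g(a.i.)/ha went on at the corn 2–5 leaf stage, with four replicates of 20 m^2 per treatment.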
# Solanum nigrum = test: Field test for weed control in a corn field
# Outline: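 In a corn field trial based on GB/T 17980.42-2000, 10% emulsifiable concentrates diluted in water were sprayed at 150 g(a.i.)/ha at the 2 to 5 leaf stage of corn. Each treatment used 20 m^2 plots and was repeated 4 times, with 25% mesotrione oil dispersion as the reference agent. Solanum nigrum damage was scored on a 1-9 scale against blank control plots.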
# green bristlegrass [15] = test: Field test for weed control in a corn field
# Outline: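 Herbicidal activity against green bristlegrass was assessed in corn field plots of 20 m^2 per GB/T 17980.42-2000. Test agents, formulated as 10% emulsifiable concentrates, were applied in water at 150 g(a.i.)/ha at the corn 2 leaves to 5 leaves stage, repeated 4 times. A 25% mesotrione oil dispersion served as the control agent, and weed damage was rated on levels 1-9.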
# Digitaria sanguinalis [16] = test: Field test for weed control in a corn field
# Outline: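 Field trial in a corn field following GB/T 17980.42-2000. Test compounds were formulated as 10% emulsifiable concentrates, diluted in water and sprayed post-emergence at 150 g(a.i.)/ha when corn had 2 to 5 leaves, with 4 replicates on 20 m^2 plots. Control of Digitaria sanguinalis was scored on a 1-9 scale based on weed damage relative to the untreated blank area.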
# Portulaca oleracea = test: Field test for weed control in a corn field
# Outline: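 Post-emergence weed control was evaluated in a corn field by the GB/T 17980.42-2000 method. Emulsifiable concentrates (10%) in water were applied as sprays at 150 g(a.i.)/ha at the 2-5 leaf corn stage, in four replicate 20 m^2 plots. A 25% mesotrione oil dispersion served as control agent. Effects were graded 1-9 relative to weed remaining in blank control areas.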
# [17] = 150 g a.i./ha, 30 days after treatment
# [18] = 150 g(a.i.)/ha, 21 days after treatments
smiles,measurement,setting,value
Cc1cccc(C(=O)NCc2ccc(F)c(Cl)c2)n1 [Compound B30],Herbicidal activity 15 days after treatment Cyperaceae,Cyperaceae; 15 days after treatment,1
same,Herbicidal activity 30 days after treatment Cyperaceae,Cyperaceae; 30 days after treatment,2 (equivalent to 0 to 2.5% of the weed in the blank control area)
same,Herbicidal activity 15 days after treatment Broadleaf weed,Broadleaf weed; 15 days after treatment,1
same,Herbicidal activity 30 days after treatment Broadleaf weed,Broadleaf weed; 30 days after treatment,1
same,Herbicidal activity 15 days after treatment Gramineae,Gramineae; 15 days after treatment,1
same,Herbicidal activity 30 days after treatment Gramineae,Gramineae; 30 days after treatment,1
same,Herbicidal Activity Piemarker,Piemarker [1],1
same,Herbicidal Activity Barnyard grass,Barnyard grass [2],1
same,Herbicidal Activity Green bristlegrass,green bristlegrass [3],1
same,Herbicidal Activity Amaranthus retroflexus,Amaranthus retroflexus [4],1
same,Herbicidal Activity Digitaria sanguinalis,Digitaria sanguinalis [5],1
same,Herbicidal Activity Amaranthus retroflexus,Amaranthus retroflexus [6],1
same,Herbicidal Activity Piemarker,Piemarker [7],1
same,Herbicidal Activity Barnyard grass,Barnyard grass [8],1
same,Herbicidal Activity Green bristlegrass,green bristlegrass [9],1
same,Herbicidal Activity Digitaria sanguinalis,Digitaria sanguinalis [10],1
same,Herbicidal Activity Humulus scandens,Humulus scandens [11],1
same,Herbicidal Activity Humulus scandens,Humulus scandens [12],2 (equivalent to 0 to 2.5% of the weed in the blank control area)
same,"Post-emergence weed control effect, Amaranthus retroflexus",Amaranthus retroflexus [13]; [17],1
same,controlling effect on Amaranthus retroflexus,Amaranthus retroflexus [13]; [18],1
same,"Post-emergence weed control effect, Goose grass","goosegrass; 150 g a.i./ha, after treatment",1
same,controlling effect on goosegrass,goosegrass; [18],1
same,"Post-emergence weed control effect, Barnyard grass",Barnyard grass [14]; [17],1
same,controlling effect on barnyard grass,Barnyard grass [14]; [18],1
same,"Post-emergence weed control effect, Nutgrass flatsedge","nutgrass flatsedge; 150 g a.i./ha, after treatment",1
same,controlling effect on nutgrass flatsedge,nutgrass flatsedge; [18],1
same,"Post-emergence weed control effect, Acalypha australis","Acalypha australis; 150 g a.i./ha, after treatment",1
same,controlling effect on Acalypha australis,Acalypha australis; [18],1
same,"Post-emergence weed control effect, Chenopodium album","Chenopodium album; 150 g a.i./ha, after treatment",1
same,controlling effect on Chenopodium album,Chenopodium album; [18],1
same,"Post-emergence weed control effect, Convolvulus arvensis","Convolvulus arvensis; 150 g a.i./ha, after treatment",1
same,controlling effect on Convolvulus arvensis,Convolvulus arvensis; [18],1
same,"Post-emergence weed control effect, Solanum nigrum",Solanum nigrum; [17],1
same,controlling effect on Solanum nigrum,Solanum nigrum; [18],1
same,"Post-emergence weed control effect, Green bristlegrass","green bristlegrass [15]; 150 g a.i./ha, after treatment",1
same,controlling effect on green bristlegrass,green bristlegrass [15]; [18],1
same,"Post-emergence weed control effect, Digitaria sanguinalis","Digitaria sanguinalis [16]; 150 g a.i./ha, after treatment",1
same,controlling effect on Digitaria sanguinalis,Digitaria sanguinalis [16]; [18],1
same,"Post-emergence weed control effect, Portulaca oleracea","Portulaca oleracea; 150 g a.i./ha, after treatment",1
same,controlling effect on Portulaca oleracea,Portulaca oleracea; [18],1
